Where two headings read alike, the source gives them in different places.
Assay: Phase I clinical trial, pharmacokinetics of loxoprofen sodium eye drops
Settings: human, in vivo, topical or ocular; for AUC(0-t): read-out: Average AUC0-t
Procedure: loxoprofen sodium eye drops: eye drops of different concentrations were prepared according to Example 1; and
2. Research methods: single-center, randomized, double-blind, single and multiple administration dosage escalation designs were used to explore the safety, tolerability and pharmacokinetic characteristics of loxoprofen sodium eye drops. Single administration includes dosages of 0.025 mg (a concentration of 0.5 mg/ml), 0.05 mg (a concentration of 1 mg/ml), 0.1 mg (a concentration of 2 mg/ml), and 0.2 mg (a concentration of 4 mg/mL), with an administration method of once a day, one drop each; and multiple administration includes dosages of 0.05 mg, 0.1 mg, and 0.2 mg, with an administration method of four times a day, one drop each.

- Cmax (0.05 mg, multiple administration (four times a day)): 2.66 ± 0.6 ng/mL
- AUC(0-t) (0.05 mg, multiple administration (four times a day), 0.05 mg): 0.47 ± 0.43 ng·h/mL
- Cmax (0.1 mg, multiple administration (four times a day)): 4.22 ± 1.79 ng/mL
- AUC(0-t) (0.1 mg, multiple administration (four times a day), 0.1 mg): 2.08 ± 1.56 ng·h/mL
- Cmax (0.1 mg, single administration): 3.69 ± 0.88 ng/mL
- AUC(0-t) (0.1 mg, single administration, 0.1 mg): 1.71 ± 0.99 ng·h/mL
- Cmax (0.2 mg, multiple administration (four times a day)): 9.46 ± 3.73 ng/mL
- AUC(0-t) (0.2 mg, multiple administration (four times a day), 0.2 mg): 8.33 ± 4.4 ng·h/mL
- Cmax (0.2 mg, single administration): 8.73 ± 5.19 ng/mL
- AUC(0-t) (0.2 mg, single administration, 0.2 mg): 6.82 ± 6.3 ng·h/mL
- Tmax (multiple administration (four times a day), 0.05 mg): 12 min
- Tmax (multiple administration (four times a day), 0.1 mg): 12 min
- Tmax (multiple administration (four times a day), 0.2 mg): 12 min
Compound: CC(C(=O)O)c1ccc(CC2CCCC2=O)cc1 (stereo not shown) [loxoprofen]

Source: US20240315966A1, “COMPOSITION CONTAINING LOXOPROFEN SODIUM” (GUANGZHOU OCUSUN OPHTHALMIC BIOTECHNOLOGY CO., LTD., priority 2021, published 2024)
